Laboratory results taken from patent US20110098177A1, “METHODS AND COMPOSITIONS OF PLANT MICRONUTRIENTS” (NOVUS INTERNATIONAL INC., priority 2006, published 2011).

Experiments:
Assay type in all cases: in vivo
Tygress tomato plants [1] = test: Foliar nutrient concentration at 6 WAT, open-field tomato (Examples 7-10); details: 6 WAT, open field
Description: (§1) The following experiments were performed in open-field plots during the spring of 2008 at GCREC, Balm, University of Florida. Four products delivering Zn (BIOX-Z), Mn (BIOX-M), Cu (BIOX-Cu), and Fe (BIOX-Fe) were compared to other micronutrient supplement formulations in tomato and bell pepper plants.
(§2) The plot sizes for the tomato plants were 30-ft plots (15 plants per plot) and 15-ft plots were used for the bell pepper plants (30 plants per plot). Crop set-up, procedures and variables were as follows.
(§3) Transplants of ‘Tygress’ tomato plants and ‘Patriot’ bell pepper plants in the 4-true leaf stage (about 6 inches tall) were planted in raised beds in open-field plots. The cross-section of each raised bed was 28 inches wide at the top, 32 inches wide at the base, and 8 inches tall. Irrigation and non-micronutrient fertilizer were provided daily through two drip lines per bed (0.45 gal/100 ft bed/min) at recommended rates for tomato and bell pepper production in Florida. […] The height of the plants for each of the treatment groups was measured at 3 weeks after transplantation (WAT), just prior to treatment with the experimental foliar fertilizers.
(§4) All foliar fertilizers except BIOX-CM were applied to the various treatment groups at 3 weeks after transplantation (WAT) and again at 5 WAT. The BIOX-CM treatment was applied at 4 and 5 WAT. The working water volume was 60 gal/acre and a non-ionic surfactant (Ad-Spray 80) was added in the amount of 2 pints/100 gal water. All plots were sprayed with sprayers pressurized at 25 psi and the canopies of both crops were covered with the micronutrient solutions. Treated plots were isolated during foliar fertilizer application to avoid the cross-contamination of other treatments on adjoining plots.
(§5) Leaf samples were collected from the most recent mature leaves from each plant at 6 WAT (2 weeks after initial treatment). Foliar tissue analysis was performed by a commercial laboratory to determine the concentration of N, P, K, Mg, Ca, B, Zn, Mn, Fe, and Cu. Tomato marketable fruit weights were collected at 10 and 12 WAT, and the fruits were graded according to USDA standards. Pepper marketable fruit weights were determined beginning at 5 WAT over 5 weekly harvests. Fruit mineral analysis (N, P, K, Mg, Ca, B, Zn, Mn, Fe, and Cu) was performed on samples from the tomato harvest.
(§6) The experimental design was a randomized complete block design with 5 replications for each treatment. All comparison data were analyzed using a general linear model and the means of each treatment were separated with a Fisher's protected LSD test at the 5% significance level.

[2] = tested on: Patriot bell pepper plants; test: Foliar nutrient concentration at 6 WAT, open-field bell pepper (Examples 7-10); details: 6 WAT; open field; product rate as Table 17
Description: as §1, §2, §3, §4, §5, §6

Tygress tomato plants [3] = test: Marketable yield, open-field tomato (Examples 7-10); details: open field; lb/acre/season: BIOX-Z 1.3, Cu 6.7, M 23.0, Fe 3.2, INC 4.0, INZ 0.6, CM 10.0, GZ 1.0, GF 4.0, EDZ 1.4, EDM 23.0
Description: as §1, §2, §3, §4, §5, §6

[4] = tested on: Patriot bell pepper plants; test: Marketable yield, open-field bell pepper (Examples 7-10); details: open field; lb/acre/season: BIOX-Z 1.3, Cu 6.7, M 23.0, Fe 3.2, INC 4.0, INZ 0.6, CM 10.0, GZ 1.0, GF 4.0, EDZ 1.4, EDM 23.0
Description: as §1, §2, §3, §4, §5, §6

Tygress tomato plants [5] = test: Nutrient concentration of tomato fruits at 10 WAT, open field (Examples 7-10); details: 10 WAT; open field; product rate as Table 17
Description: as §1, §2, §3, §4, §5, §6

manganese citrate [BIOX-CM]
Foliar concentration of Mn of tomato plants, statement (Tygress tomato plants [1]): significantly higher foliar concentration of Mn compared to control
Foliar B concentration of tomato plants (Tygress tomato plants [1]; product rate as Table 17): 43 ppm
Foliar Ca concentration of tomato plants (Tygress tomato plants [1]; product rate as Table 17): 1.8%
Foliar Cu concentration of tomato plants (Tygress tomato plants [1]; product rate as Table 17): 326 ppm
Foliar Fe concentration of tomato plants (Tygress tomato plants [1]; product rate as Table 17): 85 ppm
Foliar K concentration of tomato plants (Tygress tomato plants [1]; product rate as Table 17): 5.0 b %
Foliar Mg concentration of tomato plants (Tygress tomato plants [1]; product rate as Table 17): 0.66%
Foliar Mn concentration of tomato plants (Tygress tomato plants [1]; product rate as Table 17): 272 b ppm
Foliar N concentration of tomato plants (Tygress tomato plants [1]; product rate as Table 17): 5.1%
Foliar P concentration of tomato plants (Tygress tomato plants [1]; product rate as Table 17): 0.24 a %
Foliar Zn concentration of tomato plants (Tygress tomato plants [1]; product rate as Table 17): 242 b ppm
Foliar B concentration of bell pepper plants [2]: 63 ppm
Foliar Ca concentration of bell pepper plants [2]: 4.2%
Foliar Cu concentration of bell pepper plants [2]: 364 ppm
Foliar Fe concentration of bell pepper plants [2]: 121 ppm
Foliar K concentration of bell pepper plants [2]: 3.6%
Foliar Mg concentration of bell pepper plants [2]: 0.47%
Foliar Mn concentration of bell pepper plants [2]: 594 ppm
Foliar N concentration of bell pepper plants [2]: 4.3%
Foliar P concentration of bell pepper plants [2]: 0.23%
Foliar Zn concentration of bell pepper plants [2]: 44 ppm
Marketable yield, Tomato (Tygress tomato plants [3]): 13.9 b ton/acre
Marketable yield, Bell Pepper [4]: 8.0 ton/acre
B concentration of tomato fruits (Tygress tomato plants [5]): 22 ppm
Ca concentration of tomato fruits (Tygress tomato plants [5]): 0.2%
Cu concentration of tomato fruits (Tygress tomato plants [5]): 21 b ppm
Fe concentration of tomato fruits (Tygress tomato plants [5]): 73 b ppm
K concentration of tomato fruits (Tygress tomato plants [5]): 7.9%
Mg concentration of tomato fruits (Tygress tomato plants [5]): 0.37%
Mn concentration of tomato fruits (Tygress tomato plants [5]): 40 b ppm
N concentration of tomato fruits (Tygress tomato plants [5]): 4.2%
P concentration of tomato fruits (Tygress tomato plants [5]): 0.57%
Zn concentration of tomato fruits (Tygress tomato plants [5]): 217 b ppm
